Converted amounts (≈) assume the structure as drawn. Each block holds one compound with its values, some of them ahead of it.
What was measured:
Assay in all cases: ≥ marks a high value that may be exact or a test limit, other limits are often not marked, values filed in µg/mL are converted to µM
[1] = tested on: Pseudomonas aeruginosa ATCC 9027
Syspastospora parasitica = tested on: Syspastospora parasitica
[2] = tested on: Escherichia coli ATCC 8739
[3] = tested on: Staphylococcus epidermidis ATCC 35984
[4] = tested on: Edwardsiella tarda ATCC 15947
[5] = tested on: Staphylococcus aureus ATCC 33592
[6] = tested on: Vibrio parahaemolyticus ATCC 17802
Aeromonas hydrophila = tested on: Aeromonas hydrophila
Aeromonas salmonicida = tested on: Aeromonas salmonicida
Escherichia coli BL21 = tested on: Escherichia coli BL21
[7] = tested on: Streptococcus pyogenes M1T1 5448
[8] = tested on: Pseudomonas aeruginosa PAO1
Vibrio alginolyticus = tested on: Vibrio alginolyticus
[9] = tested on: Staphylococcus epidermidis
[10] = tested on: Clostridium perfringens ATCC 13124
[11] = tested on: Pseudomonas aeruginosa CMCC 10104
Klebsiella pneumoniae = tested on: Klebsiella pneumoniae
Candida albicans 1 = tested on: Candida albicans 1
[12] = tested on: Escherichia coli ATCC 25922
[13] = tested on: Bacillus cereus CMCC 63301
Aeromonas sobria = tested on: Aeromonas sobria
Acinetobacter baumannii = tested on: Acinetobacter baumannii
Vibrio vulnificus = tested on: Vibrio vulnificus
[14] = tested on: Enterococcus faecalis ATCC 29212
[15] = tested on: Bacillus subtilis CMCC 63501
Enterococcus faecium = tested on: Enterococcus faecium
[16] = tested on: Shigella flexneri ATCC 12022
[17] = tested on: Candida albicans CMCC 98001
Vibrio harveyi = tested on: Vibrio harveyi
Vibrio parahaemolyticus = tested on: Vibrio parahaemolyticus
Candida glabrata = tested on: Candida glabrata
[18] = tested on: Escherichia coli CMCC 44102
[19] = tested on: Staphylococcus aureus CMCC 26003
Vibrio splendidus = tested on: Vibrio splendidus
[20] = tested on: Acinetobacter baumannii ATCC 7978
[21] = tested on: Staphylococcus aureus ATCC 29231
[22] = tested on: Pseudomonas aeruginosa PA14
[23] = tested on: Enterococcus faecium E007

MIC [1]: 0.49 µM (≈ 0.981 µg/mL) | MIC (Syspastospora parasitica): 7.81 µM (≈ 15.6 µg/mL) | MIC [2]: 7.81 µM (≈ 15.6 µg/mL) | MIC [3]: 15.6 µM (≈ 31.3 µg/mL) | MIC [4]: ≥ 62.5 µM | MIC [5]: 31.2 µM (≈ 62.6 µg/mL) | MIC (Aeromonas hydrophila): ≥ 125 µM | MIC (Aeromonas salmonicida): ≥ 500 µM
Compound: NC(=O)[C@H](Cc1ccc(O)cc1)NC(=O)[C@H](Cc1c[nH]c2ccccc12)NC(=O)[C@H](CCCN=C(N)N)NC(=O)[C@H](CCCN=C(N)N)NC(=O)[C@H](Cc1ccc(O)cc1)NC(=O)[C@H](Cc1c[nH]c2ccccc12)NC(=O)[C@H](CCCN=C(N)N)NC(=O)[C@H](CCCN=C(N)N)NC(=O)[C@H](Cc1ccc(O)cc1)NC(=O)[C@H](Cc1c[nH]c2ccccc12)NC(=O)[C@H](CCCN=C(N)N)NC(=O)[C@@H](N)CCCN=C(N)N [RRWYRRWYRRWY]
MIC [6]: ≥ 125 µM

MIC (Escherichia coli BL21): 0.25 µM (≈ 0.76 µg/mL) | MIC [7]: 2 µM (≈ 6.08 µg/mL) | MIC [8]: 16 µM (≈ 48.7 µg/mL)
Compound: CC[C@H](C)[C@H](NC(=O)[C@H](CCCN=C(N)N)NC(=O)[C@H](CC(N)=O)NC(=O)[C@@H](NC(=O)CNC(=O)[C@H](C)N)[C@@H](C)O)C(=O)N[C@@H](C)C(=O)N[C@@H](CCCCN)C(=O)N[C@@H](CCC(=O)O)C(=O)N[C@@H](CC(C)C)C(=O)N[C@@H](CCCN=C(N)N)C(=O)N[C@@H](CCCN=C(N)N)C(=O)N[C@@H](Cc1ccc(O)cc1)C(=O)N[C@H](C(=O)N[C@@H](CCCN=C(N)N)C(=O)N[C@@H](CCCCN)C(=O)N[C@H](C(=O)NCC(=O)N[C@@H](CCCN=C(N)N)C(=O)N[C@H](C(=O)N[C@@H](CCCCN)C(=O)N[C@@H](CCCN=C(N)N)C(=O)N[C@@H](CCCCN)C(=O)N[C@@H](C)C(=O)N[C@@H](Cc1c[nH]c2ccccc12)C(=O)O)[C@@H](C)CC)C(C)C)[C@@H](C)CC [AGTNRIAKELRRYIRKVGRIKRKAW]

MIC (Vibrio alginolyticus): 31.9 µM (≈ 100 µg/mL) | MIC [9]: 31.9 µM (≈ 100 µg/mL) | MIC [10]: 11.9 µM (≈ 37.5 µg/mL) | MIC [11]: 31.9 µM (≈ 100 µg/mL) | MIC (Klebsiella pneumoniae): > 31.9 µM | MIC (Candida albicans 1): 31.9 µM (≈ 100 µg/mL) | MIC [12]: 2.99 µM (≈ 9.38 µg/mL) | MIC [13]: 31.9 µM (≈ 100 µg/mL) | MIC (Aeromonas sobria): 31.9 µM (≈ 100 µg/mL) | MIC (Acinetobacter baumannii): 31.9 µM (≈ 100 µg/mL) | MIC (Vibrio vulnificus): 31.9 µM (≈ 100 µg/mL) | MIC [14]: > 31.9 µM | MIC [15]: 11.9 µM (≈ 37.5 µg/mL) | MIC (Enterococcus faecium): 31.9 µM (≈ 100 µg/mL) | MIC [16]: 5.97 µM (≈ 18.8 µg/mL) | MIC [17]: 31.9 µM (≈ 100 µg/mL) | MIC (Vibrio harveyi): 23.9 µM (≈ 75 µg/mL) | MIC (Aeromonas hydrophila): 11.9 µM (≈ 37.5 µg/mL) | MIC (Candida glabrata): 31.9 µM (≈ 100 µg/mL) | MIC [18]: 5.97 µM (≈ 18.8 µg/mL) | MIC [19]: 2.99 µM (≈ 9.38 µg/mL) | MIC (Vibrio splendidus): 23.9 µM (≈ 75 µg/mL)
Compound: CC[C@H](C)[C@H](NC(=O)[C@H](CC(N)=O)NC(=O)[C@H](CS)NC(=O)CNC(=O)[C@@H](N)CCC(=O)O)C(=O)N[C@@H](CC(C)C)C(=O)N[C@@H](CS)C(=O)N[C@@H](CC(C)C)C(=O)N[C@@H](CC(C)C)C(=O)N[C@@H](CCCCN)C(=O)N[C@@H](CCCN=C(N)N)C(=O)N[C@@H](CCCCN)C(=O)N[C@H](C(=O)N[C@@H](CCCCN)C(=O)N[C@@H](C)C(=O)N[C@H](C(=O)N[C@@H](CCCCN)C(=O)N[C@@H](CC(N)=O)C(=O)N[C@H](C(=O)N[C@H](C(=O)N[C@@H](CCCCN)C(=O)N[C@@H](CC(N)=O)C(=O)N[C@H](C(=O)N[C@H](C(=O)N[C@@H](CCCCN)C(=O)N[C@@H](CO)C(=O)N[C@H](C(=O)N[C@H](C(=O)NCC(=O)O)C(C)C)C(C)C)C(C)C)C(C)C)C(C)C)C(C)C)C(C)C)C(C)C [EGCNILCLLKRKVKAVKNVVKNVVKSVVG]
MIC (Vibrio parahaemolyticus): 2.99 µM (≈ 9.38 µg/mL)

MIC [20]: 7.33 µM (≈ 16 µg/mL) | MIC [21]: 1.83 µM (≈ 3.99 µg/mL) | MIC [22]: 14.7 µM (≈ 32 µg/mL) | MIC [23]: ≥ 58.6 µM
Compound: CC[C@H](C)[C@H](NC(=O)[C@H](CCCCN)NC(=O)[C@H](Cc1c[nH]c2ccccc12)NC(=O)[C@@H](N)CC(C)C)C(=O)NCC(=O)N[C@@H](CCCCN)C(=O)N[C@@H](CCCCN)C(=O)N[C@H](C(=O)N[C@@H](Cc1c[nH]c2ccccc12)C(=O)N[C@@H](CCCN=C(N)N)C(=O)N[C@H](C(=O)N[C@@H](CC(C)C)C(=O)N[C@@H](Cc1c[nH]c2ccccc12)C(=O)N[C@@H](CC(N)=O)C(=O)N[C@@H](Cc1c[nH]c2ccccc12)C(=O)N[C@@H](CCCN=C(N)N)C(=O)O)C(C)C)[C@@H](C)CC [LWKIGKKIWRVLWNWR]

Source: DBAASP
